# Test results published in paper PMC4117768, “Conjugation with polyamines enhances the antibacterial and anticancer activity of chloramphenicol” (Nucleic Acids Research, 2014).
# Several values for one entry are separate records, joined by “and”; a condition that tells them apart may be missing. Equal entries are not always repeated.
# Columns and labels:
# [1] = tested on: complex C (poly(U)-programmed ribosomes from E. coli bearing Ac[3H]Phe-tRNA at the P-site), peptidyl transferase; test: Inhibition of AcPhe-puromycin synthesis (puromycin reaction, peptide bond formation); format: biochemical; conditions: for Ki: 25°C, buffer A
# Method: Isolation of 70S ribosomes from E. coli K12 cells and preparation of Ac[^3H]Phe-tRNA^Phe charged to 80% were performed, as described previously ([23]). The post-translocation complex of poly(U)-programmed ribosomes (complex C), bearing tRNA^Phe at the E-site and Ac[^3H]Phe-tRNA at the P-site was prepared in buffer A (100 mM Tris-HCl pH 7.2, 6 mM (CH3COO)2Mg, 100 mM NH4Cl and 6 mM 2-mercaptoethanol). The percentage of active ribosomes in AcPhe-tRNA binding was 72%. This ribosomal population was more than 90% reactive toward puromycin.
# The reaction between complex C and excess puromycin (S), a pseudo-substrate which binds to the ribosomal A-site, was performed at 25°C in buffer A and analyzed as described in detail elsewhere ([11]). Briefly, since the reaction followed first-order kinetics, the first-order rate constant kobs at each concentration of puromycin was determined by fitting the corrected x-values into Equation ([1]), (1) where x is the product Ac[^3H]Phe-puromycin expressed as the percentage of complex C radioactivity added in the reaction mixture and t the time of the reaction. kobs is related to the puromycin concentration, [S], by the relationship, (2) where kcat is the catalytic rate constant of PTase and KS the affinity constant of puromycin for complex C.
# In the presence of CAM–polyamine conjugates, biphasic logarithmic time plots were obtained. The slope of the straight line through the origin was taken as the value of the apparent rate constant, kobs(early), at the early phase of the reaction, while the slope of the second straight line was taken as the value of the rate constant, kobs(late), at the late phase of the reaction.
# [2] = tested on: U937 (histiocytic lymphoma) cells; test: Toxicity assay in leukemic cell line (cell counting); format: cell-based, human; conditions: increasing concentrations
# Method: Human leukemic cell lines, HS-Sultan (Burkitt's lymphoma) (European Collection of Cell Cultures, Salisbury, UK), Jurkat (T-cell acute lymphoblastic leukemia) and U937 (histiocytic lymphoma) (American Type Culture Collection, Manassas, USA), were adjusted to 1 × 10^9 cells/l in RPMI-1640 medium containing 1% Penicillin/Streptomycin and 10% fetal bovine serum and grown in triplicate in the presence or absence of CAM or PA–CAM conjugates for 4 days at 37°C, under a humidified 5% CO2 atmosphere. The medium was changed after 2 days of exposure; CAM or PA-CAM addition was repeated after medium change to keep the appropriate drug concentration. Aliquots were collected daily and counted in a CELL-DYN 3700 Hematology Analyzer. For cell necrosis and apoptosis assays, samples (10^6 cells) were collected daily and determined using the Annexin V-PE Apoptosis Detection Kit I (BD Pharmingen) for flow cytometry ([29]), as described by the manufacturer. Flow cytometry data were analyzed using the FlowJo flow cytometry analysis software. Necrotic and apoptotic cells were expressed as a percentage of total cells.
# Figure S2. Toxicity assays in leukemic cell lines. […] Aliquots were collected daily and counted in a CELL-DYN 3700 Hematology Analyzer.
compound,measurement,setting,value
NCCCN(CCCCN(Cc1ccccc1)Cc1ccccc1)C(=O)CCC(=O)N[C@H](CO)[C@H](O)c1ccc([N+](=O)[O-])cc1 [Compound 4],Ki,[1]; early phase of the reaction (encounter complex CI),975 nM and 980 nM
same,Ki,[1]; late phase of the reaction (complex C*I),280 ± 30 nM
same,"potency relative to CAM, based on Kik7/(k6 + k7)",[1]; overall two-step inhibition of the puromycin reaction,3 fold
same,sensitivity of cells (cell counting),[2],insensitive
